Assay results: patent US20250360091A1, “COMBINATION OF SGLT2 INHIBITOR AND MENTHOL AND USE THEREOF IN TREATMENT OF HEART DISEASE” (EAST CHINA UNIVERSITY OF SCIENCE AND TECHNOLOGY, priority 2023, published 2025)

Tests used:
[1] = system: H9c2 cells; experiment: Oil Red O staining of palmitic acid-induced lipid accumulation (Example 6); assay type: cell-based, Rat; conditions: used alone: EMPA 50 or 100 μM, MEN 200 μM; 24 h after 200 μM palmitic acid 48 h
Description: 1. Oil Red O staining. H9c2 cells were seeded in 12-well plates (1×10^5 cells per well) and cultured to 80-90% confluence. The cells were incubated with lipid medium containing 200 μM palmitic acid (Sigma-Aldrich, P0500) for 48 h to induce lipid droplet accumulation. The lipid medium was removed, and the cells were cultured for 24 h with medium containing 50 μM EMPA (E50, EMPA-50), 100 μM EMPA (E100), 200 μM MEN (M200), and 50 μM EMPA+200 μM MEN (E50+M200) but without palmitic acid. After the incubation, the cells were stained with Oil Red. The cells were washed 3 times with PBS and fixed with 4% paraformaldehyde at room temperature for 30 min. They were washed again with PBS 3 times and incubated with Oil Red O working solution at room temperature for 30 min. After rinsing with PBS 3 times, the cells were imaged under a microscope. The red area (positive area of lipid accumulation) was measured using Image J software package. The experiment was divided into 6 groups, black group (blank group, not treated with lipid medium and drugs), control group (control group, treated with lipid medium but not treated with drugs), E50 group (treated with lipid medium and then 50 μM EMPA), E100 (treated with lipid medium and then 100 μM EMPA), M200 (treated with lipid medium and then 200 μM menthol), E50+M200 (treated with lipid medium and then 50 μM empagliflozin+200 μM menthol).

[2] = system: Rat cardiomyocytes (H9c2); experiment: GD-induced myocardial cell damage model, CCK-8, SGLT2 inhibitors with L-menthol (Example 9); assay type: cell-based; conditions: single drugs: SGLT2 inhibitor 50 μM or menthol 200 μM; GD 36-48 h; untreated group 54.7%
Description: In this example, the protective effect of the drug composition on myocardial cells was evaluated by using a GD-induced myocardial cell damage model. […] Rat cardiomyocytes (H9c2) were purchased from the Chinese Academy of Sciences Stem Cell Bank. The cardiomyocytes were cultured in high-glucose DMEM medium (Gibco, 11995-065) containing 10% fetal bovine serum and 1% penicillin/streptomycin, and incubated in a 37° C., 5% CO2 incubator. […] When the cells reached confluence, the DMEM medium was removed, and the cells were washed once with PBS. […] The synergistic coefficient was calculated using the Zero interaction dose model, with the formula: CI=(EAB−EA*EB)/(EA+EB−EA*EB), wherein CI is the synergistic effect index, EAB is the efficacy index of the combination of drugs, and EA and EB are the efficacy indices of the individual drugs, respectively.

[3] = system: ISO-induced heart failure model; experiment: Isoproterenol-induced heart failure model (Example 3); assay type: in vivo, C57/6J male mice; conditions: for cardiac function (ejection fraction, fractional shortening, echocardiography): gavage daily, day 15
Description: Isoproterenol hydrochloride is a commonly used inducer for establishing a heart failure model. Subcutaneous injection of isoproterenol hydrochloride can accelerate the heart rate of mice, cause the myocardium to continue to contract strongly, increase myocardial oxygen consumption, increase the heart load, and eventually cause heart failure.
Preferably, 50 µM of empagliflozin and 200 μM of menthol were converted into a mass ratio of about 1:1.5 according to the molar molecular weight. The dose of empagliflozin was set at 10 mg/kg and 30 mg/kg, and the pharmaceutical composition was set as the 10 mg/kg empagliflozin+15 mg/kg menthol group. In addition, in order to determine the extent to which the combination of menthol can reduce the effective dose of empagliflozin, a combination of menthol at a dose of 15 mg/kg and empagliflozin at a dose of 5 mg/kg was administered, resulting in the empagliflozin 5 mg/kg+menthol 15 mg/kg group.
Specifically, C57/6J male mice with an average body weight of about 21-22 g were divided into 7 groups (sham group, ISO group, empagliflozin 30 mg/kg group (E30), empagliflozin 10 mg/kg group (E10), menthol 15 mg/kg group (M15), empagliflozin 10 mg/kg+menthol 15 mg/kg group (E10+M15), empagliflozin 5 mg/kg+menthol 15 mg/kg group (E5+M15)), with 8 mice in each group. The mice were given drugs by gavage every morning, and the solvent was DMSO (the content was less than 5%, and menthol and empagliflozin solution were mixed in equal volumes and then gavaged into the mice). The sham group and ISO group were gavaged with an equal amount of drinking water every morning.
Isoproterenol hydrochloride was injected subcutaneously twice a day, in the morning and evening, with a dose of 40 mg/kg on days 1-2, 20 mg/kg on days 3-7, and 10 mg/kg on days 8-14. […]
On the 15th day, the Visual-Sonics Vevo 3100 small animal high-resolution micro-ultrasound imaging system was used to evaluate the cardiac structure and function of the experimental mice in each group. Three cardiac cycles were taken to measure the systolic interventricular septum thickness (IVSs), diastolic interventricular septum thickness (IVSd), left ventricular systolic inner diameter (LVIDs), left ventricular diastolic inner diameter (LVIDd), systolic left ventricular posterior wall thickness (LVPWs), and diastolic left ventricular posterior wall thickness (LVPWd), and the ejection fraction (EF, %) and fractional shortening (FS, %) were calculated. […] ImageJ was used to quantify the fibrosis area and calculate the degree of cardiac fibrosis. Graph Pad software was used for data processing and significant differences were calculated (OneWayANOVA was used between multiple groups, and Student's t test was used between two groups).

| Structure (SMILES) | lipid accumulation in cardiomyocytes (Oil Red O staining area) [1] | cell survival rate [2] | cardiac function (ejection fraction, fractional shortening, echocardiography) ([3]; menthol 15 mg/kg) | cardiac function (ejection fraction, fractional shortening, echocardiography) ([3]; empagliflozin 10 mg/kg) | myocardial fibrosis (Masson staining area) ([3]; empagliflozin 30 mg/kg) | cardiac function (ejection fraction, fractional shortening, echocardiography) ([3]; empagliflozin 30 mg/kg) |
| --- | --- | --- | --- | --- | --- | --- |
| CC(C)[C@@H]1CC[C@@H](C)C[C@H]1O [menthol, L-menthol] | significantly reduce lipid accumulation | 56.7% | slightly improved the cardiac function of mice with heart failure at a dose of 15 mg/kg, but there is no significant difference | – | – | – |
| OC[C@H]1O[C@@H](c2ccc(Cl)c(Cc3ccc(O[C@H]4CCOC4)cc3)c2)[C@H](O)[C@@H](O)[C@@H]1O [empagliflozin] | significantly reduce lipid accumulation | 64.5% | – | cannot significantly improve the cardiac function | significantly reduce myocardial fibrosis | can effectively improve |
